What all share (assay): NCI anticancer screen, dose series, 48 h
The subject of test [1] is LOX IMVI melanoma.
The subject of test [2] is OVCAR-8 ovarian.
Test [3] deals with NCI-H522 lung.
Test [4] has as its system MALME-3M melanoma.
Test [5] has as its system SF-268 CNS.
Test [6] has as its system NCI-H226 lung.
The subject of test [7] is SK-MEL-28 melanoma.
Test [8] has as its system MCF7 breast.
For test [9], the system named is NCI-H23 lung.
The test system of test [10] is HCT-15 colon.

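The compound was tested at five concentrations on cells cultured in 96-well plates, with a 48-hour exposure period. GI50: concentration for 50% inhibition of growth. The concentration for full growth arrest is given as TGI.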

For `CC1(C)OC2C(CO)OC(n3ccc(N)nc3=O)C2O1` (centres undefined), the TGI in test [1], in [2], in test [3], in test [4], in test [5] and in test [6] was greater than 100 µM each time. In addition, the TGI in [7], in test [8], in test [9] and in test [10] was greater than 100 µM in each case.

For the compound `CCC(C)CC(C)C(=O)c1c(O)ccn(O)c1=O` (centres undefined), the GI50 is 0.804 µM in test [1]; 0.626 µM in [2]; 2.46 µM in [3]; 1.44 µM in test [4]; 1.29 µM in test [5]; 15.8 µM in test [6]. Further, the GI50 is 2.27 µM in [7], 3.09 µM in test [8], 1.98 µM in [9] and 0.46 µM in test [10]. For the same compound, the TGI was greater than 100 µM in test [1]; greater than 100 µM in [2]; greater than 100 µM in test [3]; 10.1 µM in [4]; 45.3 µM in [5]; 75.3 µM in test [6]. The TGI in test [7], in [8], in test [9] and in test [10] was greater than 100 µM throughout.

Regarding `NS(=O)(=O)c1ccc(N=C2C(=O)Nc3ccccc32)cc1`, the TGI in test [1], in test [2], in test [3], in test [4], in test [5] and in test [6] was greater than 100 µM in each case. For the same compound, the TGI in [7], in test [8], in [9] and in test [10] was greater than 100 µM throughout.

As to `COc1ccc(/C=C/C(=O)c2ccc(Nc3nc(Nc4ccc(F)cc4)nc(Nc4ccc(Cl)cc4)n3)cc2)cc1`, the GI50 in test [1] is greater than 100 µM; in test [2], greater than 100 µM; in test [3] it was 36.7 µM; in [4], greater than 100 µM; in test [5], greater than 100 µM; in test [6] it was greater than 100 µM. In addition, the GI50 in [7] was greater than 100 µM; in [8], 0.292 µM; in [9], greater than 100 µM; in [10], 30.8 µM. The TGI in [1], in test [2], in [3], in test [4], in [5] and in [6] was greater than 100 µM throughout. For the same compound, the TGI was greater than 100 µM in test [7], 31.7 µM in test [8], greater than 100 µM in test [9] and greater than 100 µM in test [10].

On to `O=C(c1cccs1)c1nc2cc(Cl)ccc2[n+]([O-])c1C(F)(F)F`, for which the GI50 in test [1] was greater than 100 µM; in test [2], greater than 100 µM; in [3] it was 29.6 µM; in [4], 99 µM; in test [5], greater than 100 µM; in test [6], greater than 100 µM. The GI50 was greater than 100 µM in [7], 52.2 µM in test [8], greater than 100 µM in test [9] and greater than 100 µM in test [10]. Besides, the TGI in [1], in test [2], in test [3], in test [4], in test [5] and in [6] was greater than 100 µM each time. The TGI in test [7], in test [8], in test [9] and in [10] was greater than 100 µM in each case.

With `O=C(Cc1ccc(Nc2ccnc(C(F)(F)F)c2)cc1)N/N=C/c1ccccc1O`, the GI50 in test [1] was 1.34 µM; in test [2] it was 3.15 µM; in test [3], 8.96 µM; in [4], 4.07 µM; in [5], 2.17 µM; in [6], 3.85 µM. Besides, the GI50 was 3.89 µM in test [7], 2.94 µM in test [8], 4.23 µM in [9] and 0.634 µM in test [10]. For the same compound, the TGI in test [1] is 15.9 µM; in test [2], greater than 69.4 µM; in test [3], 35.9 µM; in [4] it was greater than 38.4 µM; in test [5] it was greater than 73.8 µM; in [6] it was greater than 55.6 µM. For the same compound, the TGI in test [7] is 61.4 µM; in test [8], 23.7 µM; in test [9], greater than 59.1 µM; in test [10] it was greater than 69.5 µM.

For the compound `O=C(O)c1ccc(C(=O)O)c(C(=O)O)c1.[NH-]C1CCCCC1[NH-].[Pt+2]`, the GI50 in test [1] is 3.45 µM; in test [2] it was 2.92 µM; in test [4], 1.67 µM; in test [5], 7.54 µM; in [6], 2.02 µM; in [7] it was 4.97 µM. The GI50 in test [8] is 2.3 µM; in test [9] it was 4.87 µM; in test [10], 2.05 µM. The TGI in test [1] is 68.2 µM; in test [2], 60.8 µM; in [3], 24.7 µM; in test [4], 22.8 µM; in test [5], greater than 87.4 µM; in [6] it was 32.2 µM. Moreover, the TGI in test [7] worked out at 48.1 µM; in test [8] it was 31.9 µM; in test [9], 38.4 µM; in test [10], 33.7 µM.

For the compound `Cn1c(NCC(CN2CCCC2)OC(=O)c2ccccc2)cc(=O)n(C)c1=O` (centres undefined), the GI50 was greater than 100 µM in test [1]; greater than 100 µM in test [2]; greater than 100 µM in [3]; 8.69 µM in test [4]; greater than 100 µM in test [5]; greater than 100 µM in test [6]. For the same compound, the GI50 in test [7], in [8], in test [9] and in test [10] was greater than 100 µM throughout. In addition, the TGI in test [1] was greater than 100 µM; in test [2] it was greater than 100 µM; in test [3], greater than 100 µM; in test [4], 40.8 µM; in test [5], greater than 100 µM; in test [6], greater than 100 µM. In addition, the TGI in test [7], in test [8], in test [9] and in [10] was greater than 100 µM throughout.
